According to patent US12544348B2, “Methods for treating APOE4/4-associated disorders” (The Regents of the University of California, priority 2018, dated 2026):

System: apoE3-KI mice
Assay: Morris water maze (MWM) spatial learning and memory, aged apoE3-KI mice
Type: in vivo
Details: for short-term memory, 24-hour probe trial: vs vehicle-treated apoE3-KI
Text: Mice. All protocols and procedures followed the guidelines of the Laboratory Animal Resource Center at the University of California, San Francisco (UCSF). All mice were housed under identical conditions from birth through death (12-hour light/dark cycle, housed 5/cage, PicoLab Rodent Diet 20). All mouse lines were maintained on a C57Bl/6J background. ApoE3-KI and apoE4-KI homozygous mouse lines (Taconic)^30,31 were born and aged under normal conditions at the Gladstone Institutes/UCSF animal facility. Female apoE-KI mice were used because of their susceptibility to AD-related neuronal and behavioral deficits. The ages of the mice are indicated in the behavioral testing section of the online methods. Bumetanide treatment. Bumetanide was prepared at 220 μM in 2% DMSO in 0.9% sterile saline, adjusted to pH 8.5 with NaOH for solubility, and given by i.p. injection daily starting 6 weeks before and continuing throughout behavioral assessment. Body weight was measured weekly during bumetanide treatment; injection volume was calculated to achieve a dose of 0.02 (low) or 0.2 (high) mg bumetanide/kg body mass (e.g., 50-ul daily injection for a 20-g mouse). Control mice were injected with a matched volume of 2% DMSO in 0.9% sterile saline, pH 8.5. […] Behavioral testing. Mice were singly housed before testing. Each mouse was assigned a random number, so researchers were blinded to genotype and treatment information. At about 14 months of age, apoE3-KI and apoE4-KI mice were randomly assigned to treatment groups: apoE3-KI vehicle (n=10, age 14.01±0.44 months), apoE3-KI low bumetanide (n=11, age 14.30±0.33 months), apoE3-KI high bumetanide (n=10, age 13.74±0.22 months), apoE4-KI vehicle (n=10, age 14.10±0.35), apoE4-KI low bumetanide (n=10, age 14.70±0.27 months), apoE4-KI high bumetanide (n=9, age 13.77±0.28 months). Treatment was administered daily by i.p. injection beginning 6 weeks before and continuing throughout the 14 days of testing in the Morris water maze (MWM); injections were given at the end of the light cycle and after the day's test. The MWM pool (diameter, 122 cm) contained opaque water (22-23° C.) with a platform 10 cm in diameter. The platform was submerged 1.5 cm during hidden platform sessions^20-23,32 and marked with black-and-white-striped mast (15 cm high) during cued training sessions. Mice were trained to locate the hidden platform (hidden days 1-5) and the cued platform (visible days 1-3) in two daily sessions (3.5 h apart), each consisting of two 60-s trials (hidden and cued training) with a 15-min intertrial interval. Distal visual cues on the walls of the behavioral testing room remained constant throughout the test. Visible trials took place after training and memory probes and were 60 seconds long with a cued visible platform. The platform location remained constant in the hidden platform sessions but was changed for each cued (visible) platform session. Entry points were changed semirandomly between trials. At 24, 72, and 120 hours after the last hidden platform training, a 60-s probe trial (platform removed) was done. The entry point for the probe trial was in the southwest quadrant, and the target quadrant was the northeast quadrant. Performance was monitored with an Etho Vision video-tracking system (Noldus Information Technology). For the probe trials, the following analyses were performed (1) the percent time spent in the target quadrant versus average time spent in the three other quadrants, (2) the number of crossings over the position of the target platform versus the average number of crossings over the equivalent positions in the three other quadrants and (3) the distance to platform over the first 10 seconds. Statistical analyses. Behavior metrics are expressed as mean±SEM. All values for n are the numbers of mice or biological replicates. The distribution of data was assessed with the Shapiro-Wilk normality test; most of the data were normally distributed. […]

[1] = apoE3-KI mice, high dose 0.2 mg/kg daily i.p. 8 weeks
[2] = apoE3-KI mice, low dose 0.02 mg/kg daily i.p. 8 weeks

CCCCNc1cc(C(=O)O)cc(S(N)(=O)=O)c1Oc1ccccc1 [bumetanide, 3-(butylamino)-4-phenoxy-5-sulfamoylbenzoic acid] was tested, and the “long-term memory, 120-hour probe trial (summary paragraph, dose not stated)” value (aged apoE3-KI mice, dose not stated, vehicle-treated apoE3-KI mice did not) was “remembered the hidden platform location”, the “learning curve (escape latency) in hidden platform trials” value (apoE3-KI mice, 0.02 or 0.2 mg/kg daily i.p. 8 weeks, vs vehicle, learning days 1-5) was “did not differ” and the “long-term memory, 120-hour probe trial” value [1] was “forgot the hidden platform location”. For the same molecule, the “platform crossings in target quadrant versus other quadrants, 24-hour probe trial” value [1] was “not apoE3-KI mice”, the “platform crossings in target quadrant versus other quadrants, 120-hour probe trial” value [1] was “not apoE3-KI mice” and the “short-term memory, 24-hour probe trial” value [1] was “impaired short-term memory”. The “long-term memory, 120-hour probe trial” value [2] was “forgot the hidden platform location” and the “short-term memory, 24-hour probe trial” value [2] was “performed equally well”.
